Laboratory results published in patent publication US20250304537A1 (Repare Therapeutics Inc., priority 2022, published 2025).
pIC50: −log10 of the molar value.

Molecular target: recombinant human Myt1 (full length PKMYT1) (Homo sapiens (Human), UniProt Q99640)
Assay: Recombinant human Myt1 kinase assay (ADP-Glo)
Assay type: biochemical
Conditions: 10 μM ATP
Summary of the method: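 ADP-Glo luminescence measured ATP hydrolysis by recombinant full-length PKMYT1 (18 nM) after 60 min at 30 °C with 10 μM ATP. Compounds in 0.5% DMSO were added to the enzyme 15 min before ATP, at 22 °C, in HEPES/MgCl2/MnCl2 buffer. IC50 and percent maximal inhibition were derived.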

Chain of recombinant human Myt1 (full length PKMYT1) (Q99640 whole entry): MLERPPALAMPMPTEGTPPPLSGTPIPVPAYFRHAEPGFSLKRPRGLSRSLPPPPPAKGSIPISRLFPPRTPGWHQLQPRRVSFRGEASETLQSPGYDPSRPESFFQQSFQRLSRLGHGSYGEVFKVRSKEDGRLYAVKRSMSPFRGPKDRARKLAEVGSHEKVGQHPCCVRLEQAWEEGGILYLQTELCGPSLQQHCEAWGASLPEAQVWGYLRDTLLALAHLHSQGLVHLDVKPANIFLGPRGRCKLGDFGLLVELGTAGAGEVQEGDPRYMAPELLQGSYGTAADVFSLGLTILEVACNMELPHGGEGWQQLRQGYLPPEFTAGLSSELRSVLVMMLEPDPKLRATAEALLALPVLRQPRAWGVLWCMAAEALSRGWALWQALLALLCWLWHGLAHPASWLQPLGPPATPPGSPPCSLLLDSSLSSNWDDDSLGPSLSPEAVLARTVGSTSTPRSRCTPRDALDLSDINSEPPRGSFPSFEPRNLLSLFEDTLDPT

Structure (SMILES)	pIC50
Cc1ccc2[nH]ncc2c1-c1cc(-c2cccc(OCCN3CCCC3)n2)nc(C(N)=O)c1N (atropisomer, axis not shown) [Compound 271]	5.96
COc1cc(-c2nc(C(N)=O)c(N)c(-c3cc(O)ccc3C)n2)ccn1 [Compound 25]	7.82
Cc1ccc2[nH]ncc2c1-c1cc(-c2csc(C3(O)COC3)n2)nc(C(N)=O)c1N [Compound 223]	7.21
Cc1ccc2[nH]ncc2c1-c1nc(-c2cccc(OCC(=O)O)c2)nc(C(N)=O)c1N [Compound 294]	7.77
Cc1ccc2[nH]ncc2c1-c1cc(-c2ccnc(N3CC[C@H](O)C3)n2)nc(C(N)=O)c1N [Compound 348]	7.82
Cc1ccc2[nH]ncc2c1-c1cc(-c2ccnc(OCCn3cccn3)n2)nc(C(N)=O)c1N [Compound 329]	7.85
Cc1ccc2[nH]ncc2c1-c1cc(-c2ccnc(N[C@H]3CC[C@H](O)CC3)n2)nc(C(N)=O)c1N [Compound 369]	8.40
Cc1ccc2[nH]ncc2c1-c1cc(-c2ncccn2)nc(C(N)=O)c1N [Compound 219]	7.25
Cc1ccc2[nH]ncc2c1-c1cc(-c2cccc(OCc3c(F)c(F)c(F)c(F)c3F)n2)nc(C(N)=O)c1N [Compound 258]	< 5.70
Cc1ccc2[nH]ncc2c1-c1cc(-c2ccnc(OCc3cncn3C3CCCCC3)n2)nc(C(N)=O)c1N [Compound 328]	7.74
Cc1ccc2[nH]ncc2c1-c1cc(-c2ccnc(N3CCCCC3CCO)n2)nc(C(N)=O)c1N (stereo not shown) [Compound 404]	7.62
Cc1ccc2[nH]ncc2c1-c1nc(-c2ccc(C(=O)O)s2)nc(C(N)=O)c1N [Compound 162]	6.70
Cc1ccc2[nH]ncc2c1-c1nc(-c2cccc(CN3CCOCC3)c2)nc(C(N)=O)c1N [Compound 283]	7.52
Cc1ccc2[nH]ncc2c1-c1cc(-c2cccc(OCc3ccn(C)n3)n2)nc(C(N)=O)c1N [Compound 248]	7.15
CO[C@H](COc1cccc(-c2cc(-c3c(C)ccc4[nH]ncc34)c(N)c(C(N)=O)n2)n1)C1CC1 (atropisomer, axis not shown) [Compound 364]	8.10
Cc1ccc2[nH]ncc2c1-c1nc(-c2ccc(CN3CCOCC3)cc2)nc(C(N)=O)c1N [Compound 147]	6.66

Structure (SMILES)	pIC50
Cc1ccc2[nH]ncc2c1-c1cc(-c2ccnc(OCc3nc4ccccc4n3C)n2)nc(C(N)=O)c1N [Compound 336]	7.19
Cc1ccc2[nH]ncc2c1-c1nc(-c2ccc3cnn(C)c3c2)nc(C(N)=O)c1N [Compound 119]	7.60
Cc1ccc2[nH]ncc2c1-c1nc(-c2cccnc2)nc(C(N)=O)c1N [Compound 99]	7.23
Cc1ccc2[nH]ncc2c1-c1nc(-c2cccc(C(=O)O)c2)nc(C(N)=O)c1N [Compound 150]	5.95
COc1ccc(COc2cccc(-c3cc(-c4c(C)ccc5[nH]ncc45)c(N)c(C(N)=O)n3)n2)cc1 [Compound 339]	5.94
Cc1ccc2[nH]ncc2c1-c1cc(-c2cccc(Oc3ccccn3)n2)nc(C(N)=O)c1N [Compound 202]	6.97
Cc1ccc2[nH]ncc2c1-c1cc(-c2ccnc(N[C@@H](CO)c3ccccc3)n2)nc(C(N)=O)c1N (atropisomer, axis not shown) [Compound 362]	8.70
Cc1ccc2[nH]ncc2c1-c1nc(-c2cccc(CN(C)C)c2)nc(C(N)=O)c1N [Compound 291]	7.60
Cc1ccc2[nH]ncc2c1-c1cc(-c2ccnc(N3CC[C@@H](O)C3)n2)nc(C(N)=O)c1N [Compound 347]	7.74
Cc1ccc2[nH]ncc2c1-c1cc(-c2ccnc(OCCN(C)C(=O)OC(C)(C)C)n2)nc(C(N)=O)c1N [Compound 209]	7.14
CC(=O)c1ccc(-c2nc(C(N)=O)c(N)c(-c3c(C)ccc4[nH]ncc34)n2)cc1 [Compound 128]	7.24
Cc1ccc2[nH]ncc2c1-c1nc(-c2cccc(Cl)c2N)nc(C(N)=O)c1N [Compound 444]	7.37
Cc1ccc(O)cc1-c1nc(-c2ccc(F)c(Cl)c2)nc(C(N)=O)c1N [Compound 28]	7.35
Cc1ccc2[nH]ncc2c1-c1nc(-c2cccc(-n3cccn3)c2)nc(C(N)=O)c1N [Compound 282]	7.89
Cc1nc(COc2nccc(-c3cc(-c4c(C)ccc5[nH]ncc45)c(N)c(C(N)=O)n3)n2)co1 [Compound 316]	7.70
